# Assay results: paper PMC8993905, “Functional control of a 0.5 MDa TET aminopeptidase by a flexible loop revealed by MAS NMR” (Nature Communications, 2022)
# Key:
# [1] = target: T1, TET2 (Pyrococcus horikoshii, UniProt O59196, H123F); experiment: MAS NMR 1H-15N chemical-shift perturbation; format: binding; conditions: active site, non-covalent; isotope-labelled protein, ca. 28 °C
# T1 construct: gene frvX; full length, 353 residues per subunit, pET41c in E. coli BL21(DE3), no tag mentioned (heat step, Resource Q, Superdex 200), 39 kDa subunit, 468 kDa homododecamer, two Zn per active site
# [2] = target: T2, TET2 (Pyrococcus horikoshii, UniProt O59196); experiment: MAS NMR chemical-shift perturbation; format: binding; conditions: active site, non-covalent; isotope-labelled protein, ca. 28 °C
# T2 construct: gene frvX; full length, 353 residues per subunit, pET41c in E. coli BL21(DE3), no tag mentioned (heat step, Resource Q, Superdex 200), 39 kDa subunit, 468 kDa homododecamer, two Zn per active site
# [3] = target: T3, TET2 (Pyrococcus horikoshii, UniProt O59196, H123Y); experiment: H-Leu-pNA hydrolysis, absorbance at […] nm; format: biochemical; conditions: 6.4 mM H-Leu-pNA, 1, 5 or 20 mM histidine, pH 7.5, 50 °C
# T3 construct: gene frvX; full length, 353 residues per subunit, pET41c in E. coli BL21(DE3), no tag mentioned (heat step, Resource Q, Superdex 200), 39 kDa subunit, 468 kDa homododecamer, two Zn per active site
# [4] = target: T2, TET2; experiment: H-Leu-pNA hydrolysis, absorbance at […] nm; format: biochemical; conditions: 6.4 mM H-Leu-pNA, 1, 5 or 20 mM histidine, pH 7.5, 50 °C
# [5] = target: T2, TET2; experiment: MAS NMR 1H-15N peak doubling (G92, D94, H323); format: binding; conditions: active site; 50% (vol/vol) MPD, pH 7.6, ca. 28 °C; slow exchange
# T2 sequence (O59196 whole entry): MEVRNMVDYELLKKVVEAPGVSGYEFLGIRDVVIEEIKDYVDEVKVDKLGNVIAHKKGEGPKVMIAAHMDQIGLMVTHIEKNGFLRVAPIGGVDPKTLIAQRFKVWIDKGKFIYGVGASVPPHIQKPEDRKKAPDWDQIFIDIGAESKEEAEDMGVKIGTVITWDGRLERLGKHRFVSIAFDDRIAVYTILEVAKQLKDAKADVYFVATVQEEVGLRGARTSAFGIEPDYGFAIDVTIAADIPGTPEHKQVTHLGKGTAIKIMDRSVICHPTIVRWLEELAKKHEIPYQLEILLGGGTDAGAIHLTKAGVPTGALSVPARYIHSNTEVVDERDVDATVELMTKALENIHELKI
# T3 sequence (O59196 whole entry H123Y): as the sequence (O59196 whole entry) above, with H123Y counted along it
# T1 sequence (O59196 whole entry H123F): as the sequence (O59196 whole entry) above, with H123F counted along it
smiles,measurement,setting,value
CC(C)C[C@@H](N)[C@H](O)C(=O)N[C@H](C(=O)N[C@H](C(=O)N[C@@H](CC(=O)O)C(=O)O)C(C)C)C(C)C [amastatin],MAS NMR 1H-15N chemical-shift perturbation,[1],We ensured that amastatin tightly binds to the H123F mutant
same,MAS NMR chemical-shift perturbation,[2],MAS NMR experiments reveal the chemical-shift perturbations induced by this tightly bound inhibitor
N[C@@H](Cc1c[nH]cn1)C(=O)O [histidine],activity with added free histidine,[3],"addition of free His not only does not increase the activity, but abolishes the function"
same,activity with added free histidine,[4],abolishes the function of WT and mutant TET2
"CC(O)CC(C)(C)O (centres unmarked) [2-methyl-2,4-pentanediol]","MAS NMR 1H-15N peak doubling (G92, D94, H323)",[5],"2-methyl-2,4-pentanediol (MPD), a common crystallization agent used also to obtain solid-state NMR samples, interacts"
